Experimental data from US9090605B2, “Substituted 5-,6- and 7-membered heterocycles, medicaments containing such compounds, and their use” (Vitae Pharmaceuticals, Inc., priority 2010, dated 2015).

Target: 11β-HSD1 (Homo sapiens, UniProt P28845)
Test: In vitro inhibition of 11β-HSD1, HTRF detection of cortisol generated by human liver microsomes (biological test example 1)
Format: biochemical
Set-up: detecting cortisol generated from cortisterone by human liver microsomes; from tissue; host or cells: human liver microsomes
Conditions: 1 hour at 37° C., cortisone 80 nM, NADPH 200 μM, read-out: IC50, inhibitory activity on 11β-HSD 1
Method: Briefly, compounds were incubated for 1 hour at 37° C. in Tris buffer (20 mM tris, 5 mM EDTA, pH 6.0) containing NADPH (200 μM) and cortisone (80 nM). Cortisol generated in the reaction was then detected with a competitive immunoassay, involving two HTRF conjugates: cortisol linked to XL665 and anti-cortisol antibody labeled with Europium cryptate. The incubation period for detection reaction was typically 2 hours. The amount of cortisol was determined by reading the time-resolved fluorescence of the wells (Ex 320/75 nm; Em 615/8.5 nm and 665/7.5 nm). The ratio of the two emission signals was then calculated (Em665*10000/Em615). […] Each assay also contained a calibration curve with cortisol to transform the fluorescent data into cortisol concentrations. Percent inhibition (% CTL) of each compound was determined relative to the carbenoxolone signal and IC50 curves were generated.

Chain of 11β-HSD1 (P28845 whole entry): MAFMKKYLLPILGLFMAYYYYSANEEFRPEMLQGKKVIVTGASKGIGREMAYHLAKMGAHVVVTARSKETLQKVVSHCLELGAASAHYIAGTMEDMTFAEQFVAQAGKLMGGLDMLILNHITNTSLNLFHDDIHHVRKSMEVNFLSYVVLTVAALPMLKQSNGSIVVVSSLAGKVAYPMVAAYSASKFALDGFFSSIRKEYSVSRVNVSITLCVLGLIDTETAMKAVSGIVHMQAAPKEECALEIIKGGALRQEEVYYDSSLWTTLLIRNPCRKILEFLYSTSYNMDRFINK

Structure (SMILES) | IC50 [nM]
C[C@@H](c1ccc(-c2ccc(C3(O)CCN(C)C3=O)nc2)cc1)N1CC[C@](CC(C)(C)O)(c2ccccc2)OC1=O (stereo partly drawn) [Example 56, 3-((S)-1-{4-[6-(3-Hydroxy-1-methyl-2-oxo-pyrrolidin-3-yl)-pyridin-3-yl]-phenyl}-ethyl)-(S)-6-(2-hydroxy-2-methyl-propyl)-6-phenyl-[1,3]oxazinan-2-one] | 59
C[C@@H](c1ccc(-c2ccc(C3(C(=O)N(C)C)CC3)nn2)cc1)N1CC[C@](CC(C)(C)O)(c2ccccc2)OC1=O [Example 11, 1-[6-(4-{(S)-1-[(S)-6-(2-Hydroxy-2-methyl-propyl)-2-oxo-6-phenyl-[1,3]oxazinan-3-yl]-ethyl}-phenyl)-pyridazin-3-yl]-cyclopropanecarboxylic acid dimethylamide] | 94
C[C@@H](c1ccc(-c2ccc(C3(C(=O)O)CC3)nn2)cc1)N1CC[C@](CC(C)(C)O)(c2ccccc2)OC1=O [Example 8, 1-[6-(4-{(S)-1-[(S)-6-(2-Hydroxy-2-methyl-propyl)-2-oxo-6-phenyl-[1,3]oxazinan-3-yl]-ethyl}-phenyl)-pyridazin-3-yl]-cyclopropanecarboxylic acid] | 182
CNC(=O)C1(c2ccc(-c3ccc([C@H](C)N4CC[C@](CC(C)(C)O)(c5ccccc5)OC4=O)cc3)cn2)CC1 [Example 5, 1-[5-(4-{(S)-1-[(S)-6-(2-Hydroxy-2-methyl-propyl)-2-oxo-6-phenyl-[1,3]oxazinan-3-yl]-ethyl}-phenyl)-pyridin-2-yl]-cyclopropanecarboxylic acid methylamide] | 31
C[C@@H](c1ccc(-c2ccc(C3(C(N)=O)CC3)nn2)cc1)N1CC[C@](CC(C)(C)O)(c2ccccc2)OC1=O [Example 9, 1-[6-(4-{(S)-1-[(S)-6-(2-Hydroxy-2-methyl-propyl)-2-oxo-6-phenyl-[1,3]oxazinan-3-yl]-ethyl}-phenyl)-pyridazin-3-yl]-cyclopropanecarboxylic acid amide] | 68
C[C@@H](c1ccc(-c2ccc(C3(C(=O)N(C)C)CC3)nc2)cc1)N1CC[C@](CC(C)(C)O)(c2ccccc2)OC1=O [Example 6, 1-[5-(4-{(S)-1-[(S)-6-(2-Hydroxy-2-methyl-propyl)-2-oxo-6-phenyl-[1,3]oxazinan-3-yl]-ethyl}-phenyl)-pyridin-2-yl]-cyclopropanecarboxylic acid dimethylamide] | 21
C[C@@H](c1ccc(-c2ccc(C3(C(N)=O)CC3)nc2)cc1)N1CC[C@](CC(C)(C)O)(c2ccccc2)OC1=O [Example 3, 1-[5-(4-{(S)-1-[(S)-6-(2-Hydroxy-2-methyl-propyl)-2-oxo-6-phenyl-[1,3]oxazinan-3-yl]-ethyl}-phenyl)-pyridin-2-yl]-cyclopropanecarboxylic acid amide] | 39
CCOC(=O)C1(c2ccc(-c3ccc([C@H](C)N4CC[C@](CC(C)(C)O)(c5ccccc5)OC4=O)cc3)nn2)CC1 [Example 7, 1-[6-(4-{(S)-1-[(S)-6-(2-Hydroxy-2-methyl-propyl)-2-oxo-6-phenyl-[1,3]oxazinan-3-yl]-ethyl}-phenyl)-pyridazin-3-yl]-cyclopropanecarboxylic acid ethyl ester] | 41
C[C@@H](c1ccc(-c2ccn([C@@H]3CCOC3)c(=O)c2)cc1)N1CC[C@](CC(C)(C)O)(c2ccccc2)OC1=O [Example 12, (S)-6-(2-Hydroxy-2-methyl-propyl)-3-((S)-1-{4-[2-oxo-1-((R)-tetrahydro-furan-3-yl)-1,2-dihydro-pyridin-4-yl]-phenyl}-ethyl)-6-phenyl-[1,3]oxazinan-2-one] | 92
C[C@@H](c1ccc(-c2ccc(C3(C#N)CC3)nc2)cc1)N1CC[C@](CC(C)(C)O)(c2ccccc2)OC1=O [Example 2, 1-[5-(4-{(S)-1-[(S)-6-(2-Hydroxy-2-methyl-propyl)-2-oxo-6-phenyl-[1,3]oxazinan-3-yl]-ethyl}-phenyl)-pyridin-2-yl]-cyclopropanecarbonitrile] | 68
C[C@@H](c1ccc(-c2ccc(C3(C#N)CC3)nn2)cc1)N1CC[C@](CC(C)(C)O)(c2ccccc2)OC1=O [Example 4, 1-[6-(4-{(S)-1-[(S)-6-(2-Hydroxy-2-methyl-propyl)-2-oxo-6-phenyl-[1,3]oxazinan-3-yl]-ethyl}-phenyl)-pyridazin-3-yl]-cyclopropanecarbonitrile] | 53

Second part, the compound after the results:

IC50 [nM] | Structure (SMILES)
29 | C[C@@H](c1ccc(-c2ccc(C3(C)CCN(C)C3=O)nc2)cc1)N1CC[C@](CC(C)(C)O)(c2ccccc2)OC1=O (stereo partly drawn) [Example 57, 3-((S)-1-{4-[6-(1,3-Dimethyl-2-oxo-pyrrolidin-3-yl)-pyridin-3-yl]-phenyl}-ethyl)-(S)-6-(2-hydroxy-2-methyl-propyl)-6-phenyl-[1,3]oxazinan-2-one]
64 | C[C@@H](c1ccc(-c2ccc(C3(S(C)(=O)=O)CC3)nc2)cc1)N1CC[C@](CC(C)(C)O)(c2ccccc2)OC1=O [Example 18, (S)-6-(2-Hydroxy-2-methyl-propyl)-3-((S)-1-{4-[6-(1-methanesulfonyl-cyclopropyl)-pyridin-3-yl]-phenyl}-ethyl)-6-phenyl-[1,3]oxazinan-2-one]
52 | C[C@@H](c1ccc(-c2ccnc(C3(S(C)(=O)=O)CC3)c2)cc1)N1CC[C@](CC(C)(C)O)(c2ccccc2)OC1=O [Example 21, (S)-6-(2-Hydroxy-2-methyl-propyl)-3-((S)-1-{4-[2-(1-methanesulfonyl-cyclopropyl)-pyridin-4-yl]-phenyl}-ethyl)-6-phenyl-[1,3]oxazinan-2-one]
73 | C[C@@H](c1ccc(-c2ccc(C3(C(N)=O)CCOCC3)nc2)cc1)N1CC[C@](CC(C)(C)O)(c2ccccc2)OC1=O [Example 50, 4-[5-(4-{(S)-1-[(S)-6-(2-Hydroxy-2-methyl-propyl)-2-oxo-6-phenyl-[1,3]oxazinan-3-yl]-ethyl}-phenyl)-pyridin-2-yl]-tetrahydro-pyran-4-carboxylic acid amide]
87 | C[C@@H](c1ccc(-c2ccc(N3CCC[C@@H]3C(N)=O)nn2)cc1)N1CC[C@](CC(C)(C)O)(c2ccccc2)OC1=O [Example 55, (R)-1-[6-(4-{(S)-1-[(S)-6-(2-Hydroxy-2-methyl-propyl)-2-oxo-6-phenyl-[1,3]oxazinan-3-yl]-ethyl}-phenyl)-pyridazin-3-yl]-pyrrolidine-2-carboxylic acid amide]
29 | C[C@@H](c1ccc(-c2cnn([C@H]3CCOC3)c2)cc1)N1CC[C@](CC(C)(C)O)(c2ccccc2)OC1=O [Example 16, (S)-6-(2-Hydroxy-2-methyl-propyl)-6-phenyl-3-((S)-1-{4-[1-((S)-tetrahydro-furan-3-yl)-1H-pyrazol-4-yl]-phenyl}-ethyl)-[1,3]oxazinan-2-one]
73 | C[C@@H](c1ccc(-c2cccc(C3(S(C)(=O)=O)CC3)n2)cc1)N1CC[C@](CC(C)(C)O)(c2ccccc2)OC1=O [Example 20, (S)-6-(2-Hydroxy-2-methyl-propyl)-3-((S)-1-{4-[6-(1-methanesulfonyl-cyclopropyl)-pyridin-2-yl]-phenyl}-ethyl)-6-phenyl-[1,3]oxazinan-2-one]
42 | C[C@@H](c1ccc(-c2ccc(C3CCN(C)C3=O)nc2)cc1)N1CC[C@](CC(C)(C)O)(c2ccccc2)OC1=O (stereo partly drawn) [Example 52, (S)-6-(2-Hydroxy-2-methyl-propyl)-3-((S)-1-{4-[6-(1-methyl-2-oxo-pyrrolidin-3-yl)-pyridin-3-yl]-phenyl}-ethyl)-6-phenyl-[1,3]oxazinan-2-one]
56 | C[C@@H](c1ccc(-c2ccc(C3(C(N)=O)CCCC3)nc2)cc1)N1CC[C@](CC(C)(C)O)(c2ccccc2)OC1=O [Example 42, 1-[5-(4-{(S)-1-[(S)-6-(2-Hydroxy-2-methyl-propyl)-2-oxo-6-phenyl-[1,3]oxazinan-3-yl]-ethyl}-phenyl)-pyridin-2-yl]-cyclopentanecarboxylic acid amide]
27 | C[C@@H](c1ccc(-c2cnn([C@@H]3CCOC3)c2)cc1)N1CC[C@](CC(C)(C)O)(c2ccccc2)OC1=O [Example 15, (S)-6-(2-Hydroxy-2-methyl-propyl)-6-phenyl-3-((S)-1-{4-[1-((R)-tetrahydro-furan-3-yl)-1H-pyrazol-4-yl]-phenyl}-ethyl)-[1,3]oxazinan-2-one]
30 | C[C@@H](c1ccc(-c2ccc(N3CCC[C@H]3C(N)=O)nc2)cc1)N1CC[C@](CC(C)(C)O)(c2ccccc2)OC1=O [Example 54, (S)-1-[5-(4-{(S)-1-[(S)-6-(2-Hydroxy-2-methyl-propyl)-2-oxo-6-phenyl-[1,3]oxazinan-3-yl]-ethyl}-phenyl)-pyridin-2-yl]-pyrrolidine-2-carboxylic acid amide]
181 | CCOC(=O)C1(c2cc(-c3ccc([C@H](C)N4CC[C@](CC(C)(C)O)(c5ccccc5)OC4=O)cc3)ccn2)CC1 [Example 44, 1-[4-(4-{(S)-1-[(S)-6-(2-Hydroxy-2-methyl-propyl)-2-oxo-6-phenyl-[1,3]oxazinan-3-yl]-ethyl}-phenyl)-pyridin-2-yl]-cyclopropanecarboxylic acid ethyl ester]
86 | C[C@@H](c1ccc(-c2cccc(C3(C(N)=O)CC3)n2)cc1)N1CC[C@](CC(C)(C)O)(c2ccccc2)OC1=O [Example 22, 1-[6-(4-{(S)-1-[(S)-6-(2-Hydroxy-2-methyl-propyl)-2-oxo-6-phenyl-[1,3]oxazinan-3-yl]-ethyl}-phenyl)-pyridin-2-yl]-cyclopropanecarboxylic acid amide]
